Measurements as given in patent US20150353928A1, “Genes Contributing to Survival of Cancer Cells” (Georgetown University, priority 2011, published 2015).

Tests used:
[1] = test system: LCC1 cells; experiment: Bortezomib concentration response, Cell Titer Blue viability; assay type: cell-based; conditions: 2.5 nM-2.5 μM
Description: (§1) LCC1, LCC9 and MCF7 cells were seeded at density so that the untreated condition was at 80% confluence on day 7 in the appropriate medium. Cells were incubated at 37° C. and 5% CO2 for […]. Twenty-four hours later, cells were treated with Bortezomib with final well concentrations ranging from 2.5 nM-2.5 μM. On the seventh day, 20 μL of 1:1 mixture of Cell Titer Blue (CTB) from Promega and Hank's Buffered Salt Solution (HBSS) was added to each well and incubated for another 4 hours before reading out the results using the EnVision Multilabel Plate Reader from PerkinElmer. Viability was calculated as a percentage of the untreated cells.

[2] = test system: LCC9 cells; experiment: as above; assay type: cell-based; conditions: 2.5 nM-2.5 μM
Description: as §1

Compound: CC(C)C[C@H](NC(=O)[C@H](Cc1ccccc1)NC(=O)c1cnccn1)B(O)O [Bortezomib]
- sensitivity to bortezomib compared to MCF7 (concentration response curves) [1]: more sensitive
- sensitivity to bortezomib compared to MCF7 (concentration response curves) [2]: more sensitive
